Reference: patent publication US20240018146A1, “COMPOSITIONS AND METHODS OF USING THE SAME FOR TREATMENT OF NEURODEGENERATIVE AND MITOCHONDRIAL DISEASE” (MITOKININ, INC., priority 2020, published 2024)
Where two headings read alike, the source gives them in different places.

Legend:
Format in all cases: cell-based
HeLa MKYP cells [1] = assay: Human mitophagy assay (HeLa mKeima assay, FACS)
How it was run: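 Mitophagy, read by FACS as the share of cells showing the lysosomal mtKeima emission shift, followed 6 h of 1 uM FCCP/oligomycin stimulation. Before that, HeLa MKYP cells spent 16 h with compound over a concentration range.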

HeLa MKYP cells [2] = assay: Cell death measured by DAPI staining, with 1 μM FCCP/oligomycin or no toxin (no FO)
How it was run: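 Cell death was read by DAPI staining after 6–6.5 h compound exposure in HeLa MKYP cells, either with 1 μM FCCP/oligomycin or without toxin. H2O2 served as the cell-death control.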

[3] = Mitotoxicity / Mitotox safety margin (therapeutic window)
[4] = Homo sapiens, HeLa, read-out: Mitophagy induction EC50
[5] = read-out: Mitophagy induction EC50

Structure (SMILES)	EC50 (HeLa MKYP cells [1]; [4]) [nM]	Highest safe dose (cytotoxicity; no FO; safe means DAPI+ <20%) (HeLa MKYP cells [2]; no FO) [µM]	Max % death with 1 μM FO (HeLa MKYP cells [2]) [%]	Mito-Safety Index (highest safe dose/EC50) [3]	Highest safe dose (μM) (mitotox or cytotox) [3] [µM]	mitotoxicity ([3]; FIG. 5-7)	EC50 (HeLa MKYP cells [1]; HeLa mKeima assay, read-out: Mitophagy EC50 (HeLa mKeima assay)) [nM]	EC50 (HeLa MKYP cells [1]; [5]) [nM]	Max cell death at 25 μM compound, 1 uM FO (%) (HeLa MKYP cells [2]; 25 μM compound, 1 uM FO)	Cell death at 25 μM (no FO) (%) (HeLa MKYP cells [2]; 25 μM compound, no FO)	Mitotox safety margin (Therapeutic window) [3]
FC(F)(F)c1cc2c(N[C@H]3c4ccccc4OC[C@H]3C3CCCOC3)ncnc2[nH]1 (mixture of isomers) [EP-0041004]	980	25.0	71.7	25.46	25.0	–	–	–	–	–	–
Oc1ccc2c(c1)CCC[C@H]2Nc1ncnc2[nH]c(C(F)(F)F)cc12 (single isomer, unassigned) [EP-0038508]	–	–	–	–	–	low mitotoxicity	–	–	–	–	–
Fc1ccc2c(c1)CC[C@H](N1CCOCC1)[C@H]2Nc1ncnc2[nH]c(C3CC3)cc12 (single isomer, unassigned) [EP-0039746]	–	25.0	13.4	9.48	2.8	–	250	290	15.3	3.3	+++ (+++ = 20 < x < 30)
c1ccc2c(c1)CC[C@H](N1CCOCC1)[C@H]2Nc1ncnc2[nH]c(C3CC3)cc12 (single isomer, unassigned) [EP-0040108]	130	25.0	19.1	138.83	18.3	–	–	–	–	–	–
c1ccc2c(c1)CC[C@@H](N1CCOCC1)[C@@H]2Nc1ncnc2[nH]c(C3CC3)cc12 (single isomer, unassigned) [EP-0040109]	24800	25.0	7.9	1.01	25.0	–	–	–	–	–	–
Fc1ccc2c(c1)OC[C@H](N1C[C@H]3COC[C@H]3C1)[C@H]2Nc1ncnc2[nH]c(C3CC3)cc12 (single isomer, unassigned) [EP-0040328]	–	25.0	16.0	84.78	16.0	–	–	190	–	–	–
c1ccc2c(c1)OC[C@@H](N1C[C@H]3COC[C@H]3C1)[C@@H]2Nc1ncnc2[nH]c(C3CC3)cc12 (single isomer, unassigned) [EP-0040392]	110	25.0	11.8	153.83	16.6	–	–	–	–	–	–
C[C@@H]1CN([C@H]2CCc3ccccc3[C@@H]2Nc2ncnc3[nH]c(C(F)(F)F)cc23)CCO1 (single isomer, unassigned) [EP-0040491]	70	25.0	19.4	49.72	3.7	–	–	–	–	–	–
C[C@@H]1CN([C@H]2CCc3ccccc3[C@@H]2Nc2ncnc3[nH]c(C(F)(F)F)cc23)C[C@H](C)O1 (single isomer, unassigned) [EP-0040493]	20	25.0	14.8	103.09	1.7	–	–	–	–	–	–
C[C@@H]1CN([C@H]2CCc3ccccc3[C@@H]2Nc2ncnc3[nH]c(C4CC4)cc23)CCO1 (single isomer, unassigned) [EP-0040496]	20	25.0	15.6	82.87	1.3	–	–	–	–	–	–
C[C@@H]1CN([C@H]2CCc3ccccc3[C@@H]2Nc2ncnc3[nH]c(C4CC4)cc23)C[C@H](C)O1 (single isomer, unassigned) [EP-0040498]	20	25.0	16.5	30.45	0.7	–	–	–	–	–	–
Fc1cccc2c1CC[C@@H](N1C[C@H]3COC[C@H]3C1)[C@@H]2Nc1ncnc2[nH]c(C(F)(F)F)cc12 (single isomer, unassigned) [EP-0040506]	50	25.0	41.0	44.10	2.2	–	–	–	–	–	–
C[C@H]1CN([C@H]2CCc3ccccc3[C@@H]2Nc2ncnc3[nH]c(C4CC4)cc23)CCO1 (single isomer, unassigned) [EP-0040511]	70	25.0	13.1	53.66	3.5	–	–	–	–	–	–
Fc1cccc2c1CC[C@@H](N1C[C@H]3COC[C@H]3C1)[C@@H]2Nc1ncnc2[nH]c(C3CC3)cc12 (single isomer, unassigned) [EP-0040577]	20	25.0	28.6	86.01	1.3	–	–	–	–	–	–
FC(F)(F)c1cc2c(N[C@H]3c4ccccc4CC[C@@H]3C3CCOCC3)ncnc2[nH]1 (single isomer, unassigned) [EP-0040580]	80	25.0	17.1	68.72	5.5	–	–	–	–	–	–
c1ccc2c(c1)CC[C@H](C1CCOCC1)[C@H]2Nc1ncnc2[nH]c(C3CC3)cc12 (single isomer, unassigned) [EP-0040582]	80	25.0	17.7	68.01	5.1	–	–	–	–	–	–
Fc1ccc2c(c1)OC[C@H](N1C[C@@H]3COC[C@H]3C1)[C@H]2Nc1ncnc2[nH]c(C3CC3)cc12 (single isomer, unassigned) [EP-0040644]	–	25.0	8.1	72.77	25.0	–	–	340	–	–	–
FC(F)(F)c1cc2c(N[C@@H]3c4ccccc4OC[C@H]3C3CCOCC3)ncnc2[nH]1 (single isomer, unassigned) [EP-0040700]	110	25.0	14.1	41.37	4.7	–	–	–	–	–	–
CC(C)OC1CN([C@H]2COc3ccccc3[C@@H]2Nc2ncnc3[nH]c(C(F)(F)F)cc23)C1 [EP-0041465]	6850	25.0	4.6	–	–	–	–	–	–	–	–
COC(C)(C)C1CN([C@H]2COc3ccccc3[C@@H]2Nc2ncnc3[nH]c(C(F)(F)F)cc23)C1 [EP-0041480]	2690	25.0	4.6	–	–	–	–	–	–	–	–
CS(=N)(=O)C1CN(C2COc3ccccc3C2Nc2ncnc3[nH]c(C(F)(F)F)cc23)C1 (stereo not drawn) [EP-0041496]	> 25000	25.0	3.4	–	–	–	–	–	–	–	–
CO[C@H]1CCN([C@@H]2COc3ccccc3[C@H]2Nc2ncnc3[nH]c(C4CC4)cc23)C1 [EP-0041518]	> 25000	25.0	7.4	–	–	–	–	–	–	–	–
COC[C@H]1CCN([C@H]2COc3ccccc3[C@@H]2Nc2ncnc3[nH]c(C4CC4)cc23)C1 [EP-0041547]	–	25.0	8.2	–	–	–	–	7290	–	–	–
COC[C@H]1CCCN1[C@H]1COc2ccccc2[C@@H]1Nc1ncnc2[nH]c(C(F)(F)F)cc12 [EP-0041553]	15200	25.0	5.7	–	–	–	–	–	–	–	–
